Columns and labels:
[1] = Procedure: The level of methioninemia in a healthy subject should be measured on an empty stomach and should be less than 45 μM. Typically, in the subject affected by MARS mutations, the level of methioninemia to reach efficacy should be in the range of 45-500 μM (>45 μM at residual dosage and <500 μM at peak dosage 1 hour after the dose has been taken). The level of methioninemia is measured with the following methods. […] For accurate quantification, stable isotope internal standards of the same structure for each metabolite (Eurisotop, Saint Aubin, France) are added to samples before protein precipitation. Internal standards are labeled on all carbons and nitrogen(s) with following exceptions: glutamine 2,3,3,4,4-D5, asparagine ^13C4, tryptophan Indole-D5, citrulline ^13CD4 and homocysteine 3,3,3′,3′,4,4,4′,4′-D8. Samples are first derivatized using the AccQ Tag™ Ultra (Waters Corporation, Milford, MA, USA) according to manufacturer recommendations. Amino acid separation is performed with an Acquity™ UPLC system using a CORTECS™ UPLC C18 column (1.6 μm, 2.1×150 mm) coupled to microTQS™ tandem mass spectrometer (Waters Corporation, Milford, MA, USA). The run time for quantification of all amino acids is 12 min.
The MetPAP study was registered at clinicaltrials.gov (NCT03887169). […] The secondary objectives were to determine the efficacy of such treatment.
The frequency of medication was based on the known half-life of the moleculel and the peak was determined by performing kinetic measurements on the patients during the first day of supplementation.

[2] = test system: patients with MAT I/III deficiency; settings: large series of patients with MAT I/III deficiency; cited from earlier work

## CSCC[C@H](N)C(=O)O [methionine, L-methionine]
[1]; P3, D21 of treatment
  methioninemia at T0 (residual): 42 µM
[1]; kinetic study in the patients
  time of peak plasma methionine after taking the medication: 1 h
[1]; treatment every 6 h
  residual and peak plasma methionine values over 24-h periods, days and months: reproducible residual and peak values
[2]
  mean plasma methionine values at which CNS abnormalities were observed: > 800 µM

Source: patent US20240238235A1, “METHODS AND COMPOSITIONS FOR TREATING PULMONARY ALVEOLAR PROTEINOSIS RELATED TO MARS MUTATIONS” (INSTITUT NATIONAL DE LA SANTÉ ET DE LA RECHERCHE MÉDICALE, priority 2021, published 2024)
